Test results taken from PubChem BioAssay (NCI).
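Exposure lasted 48 hours, with cells grown in 96-well plates and compounds tested at five concentrations. The concentration for full growth arrest is given as TGI.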

What was measured:
Assay in all cases: DTP human tumour cell line panel, 48 h
SR leukemia = test system: SR leukemia
OVCAR-5 ovarian = test system: OVCAR-5 ovarian
RPMI-8226 leukemia = test system: RPMI-8226 leukemia
SK-OV-3 ovarian = test system: SK-OV-3 ovarian
UACC-62 melanoma = test system: UACC-62 melanoma
NCI-H226 lung = test system: NCI-H226 lung
MOLT-4 leukemia = test system: MOLT-4 leukemia
MDA-MB-231 breast = test system: MDA-MB-231 breast
T-47D breast = test system: T-47D breast
BT-549 breast = test system: BT-549 breast

O=CC1=CCC2c3[nH]c4ccccc4c3CCN2C1 (configuration not stated)
TGI (SR leukemia): > 396 µM | TGI (OVCAR-5 ovarian): > 396 µM | TGI (RPMI-8226 leukemia): > 396 µM | TGI (SK-OV-3 ovarian): > 396 µM | TGI (UACC-62 melanoma): > 396 µM | TGI (NCI-H226 lung): 385 µM | TGI (MOLT-4 leukemia): > 396 µM

c1cc2c(cc1[C@@H]1OC[C@@H]3[C@H]1CO[C@H]3c1ccc3c(c1)OCO3)OCO2
TGI (MDA-MB-231 breast): > 100 µM | TGI (OVCAR-5 ovarian): > 100 µM | TGI (RPMI-8226 leukemia): > 100 µM | TGI (SK-OV-3 ovarian): > 100 µM | TGI (UACC-62 melanoma): > 100 µM | TGI (NCI-H226 lung): > 100 µM | TGI (MOLT-4 leukemia): > 100 µM | TGI (T-47D breast): > 100 µM

C(=C\c1c2oc(-c3ccccc3)cc(-c3ccccc3)c-2c2ccccc12)/C=C1\c2ccccc2-c2c(-c3ccccc3)cc(-c3ccccc3)[o+]c21
TGI (SR leukemia): > 100 µM | TGI (OVCAR-5 ovarian): > 100 µM | TGI (RPMI-8226 leukemia): > 100 µM | TGI (SK-OV-3 ovarian): > 100 µM | TGI (UACC-62 melanoma): > 100 µM | TGI (NCI-H226 lung): > 100 µM | TGI (MOLT-4 leukemia): > 100 µM

CC(C)[C@@H]1NC(=O)[C@@H]2N=C(O[C@H]2C)[C@H](C(C)C)NC(=O)C2N=C1O[C@H]2C
TGI (MDA-MB-231 breast): > 100 µM | TGI (SR leukemia): > 100 µM | TGI (OVCAR-5 ovarian): > 100 µM | TGI (RPMI-8226 leukemia): > 100 µM | TGI (UACC-62 melanoma): > 100 µM | TGI (NCI-H226 lung): > 100 µM | TGI (MOLT-4 leukemia): > 100 µM | TGI (T-47D breast): > 100 µM

O=C(O)/C=C/c1ccncc1
TGI (SR leukemia): > 100 µM | TGI (OVCAR-5 ovarian): > 100 µM | TGI (RPMI-8226 leukemia): > 100 µM | TGI (SK-OV-3 ovarian): > 100 µM | TGI (UACC-62 melanoma): > 100 µM | TGI (NCI-H226 lung): > 100 µM | TGI (MOLT-4 leukemia): > 100 µM

COC(=O)C(NC(=O)c1ccccc1)C(c1c(O)cc(O)cc1O)P(=O)(OC)OC (configuration not stated)
TGI (SR leukemia): > 100 µM | TGI (OVCAR-5 ovarian): > 100 µM | TGI (RPMI-8226 leukemia): > 100 µM | TGI (SK-OV-3 ovarian): > 100 µM | TGI (UACC-62 melanoma): > 100 µM | TGI (NCI-H226 lung): > 100 µM | TGI (MOLT-4 leukemia): > 100 µM

CCOC(=O)c1csc(NC(=O)C(C)N2CCOCC2)n1 (configuration not stated)
TGI (MDA-MB-231 breast): > 100 µM | TGI (SR leukemia): > 100 µM | TGI (OVCAR-5 ovarian): > 100 µM | TGI (RPMI-8226 leukemia): > 100 µM | TGI (SK-OV-3 ovarian): > 100 µM | TGI (UACC-62 melanoma): > 100 µM | TGI (MOLT-4 leukemia): > 100 µM | TGI (T-47D breast): > 100 µM

CCOC(=O)C1C(c2ccc(OC)cc2)c2c([nH]n(-c3ccccc3)c2=O)CC1(C)O (configuration not stated)
TGI (MDA-MB-231 breast): > 100 µM | TGI (SR leukemia): > 100 µM | TGI (OVCAR-5 ovarian): > 100 µM | TGI (RPMI-8226 leukemia): > 100 µM | TGI (UACC-62 melanoma): > 100 µM | TGI (MOLT-4 leukemia): 6.35 µM | TGI (T-47D breast): > 100 µM

Cc1ccc(-n2cc(-c3ccc(Cl)cc3)c3c(=N)n(N)cnc32)cc1
TGI (MDA-MB-231 breast): 25.3 µM | TGI (OVCAR-5 ovarian): 27.9 µM | TGI (SK-OV-3 ovarian): 31.5 µM | TGI (BT-549 breast): 31.7 µM | TGI (UACC-62 melanoma): 26.4 µM | TGI (NCI-H226 lung): 38.2 µM

Cn1c(NC(=O)NC23CC4CC(CC(C4)C2)C3)nc2ccccc21
TGI (SR leukemia): > 100 µM | TGI (OVCAR-5 ovarian): > 100 µM | TGI (RPMI-8226 leukemia): > 100 µM | TGI (SK-OV-3 ovarian): 51.8 µM | TGI (UACC-62 melanoma): > 100 µM | TGI (NCI-H226 lung): > 100 µM | TGI (MOLT-4 leukemia): > 100 µM
